Here are results for 43 compounds from paper PMC5965259 (Journal of medicinal chemistry, 2018).

Test [1] has as its system prozyme protein levels in T. brucei cells. Briefly: Western blot analysis of prozyme levels in treated T. brucei cells. Type of test: cell-based. Conditions: 24 h treatment at 1.5 × EC50. Background: A western blot detects proteins with antibodies after separation by electrophoresis.
Test [2] relates to bloodstream form T. brucei Lister 427. Briefly: ATP–bioluminescence-based bloodstream form T. brucei cell viability assay. Conditions: Trypanosoma brucei, 48 h, read-out: Tb427 EC50.
Test [3] deals with T1, T. brucei AdoMetDC/prozyme (Trypanosoma brucei brucei, UniProt P50244).
T1 sequence (P50244 86-370 limits assumed): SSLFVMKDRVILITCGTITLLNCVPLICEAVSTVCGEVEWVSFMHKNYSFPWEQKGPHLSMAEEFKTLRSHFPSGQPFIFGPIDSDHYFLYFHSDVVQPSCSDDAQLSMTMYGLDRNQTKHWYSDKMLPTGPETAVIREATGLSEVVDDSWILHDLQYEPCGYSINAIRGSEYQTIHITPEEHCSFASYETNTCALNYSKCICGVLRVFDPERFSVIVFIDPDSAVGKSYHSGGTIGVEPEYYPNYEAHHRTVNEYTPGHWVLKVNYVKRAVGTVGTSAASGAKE
Description: biochemical. Conditions: Tb IC50, pH 7.2; mean, triplicate, 95% CI in parentheses.

For the compound `Nc1nccc(Nc2cc(Cl)cc(Cl)c2)n1` [Compound 8], the “prozyme protein level vs vehicle-only control” value in test [1] was “induced prozyme above the vehicle-only control levels”. For the same compound, the concentration for a half-maximal effect (EC50) in test [2] came out at 9.9 µM. Taken in the same sequence, the figures for `Nc1nc(Cl)cc(Nc2cc(Cl)cc(Cl)c2)n1` [Compound 13] were “vehicle-only levels of the prozyme protein” and 8.9 µM.

For the compound `Nc1cc(Nc2cc(Cl)cc(Cl)c2)ccn1` [Compound 21, N^4-(3,5-Dichlorophenyl)pyridine-2,4-diamine], the EC50 in test [2] amounted to 11 µM. Also, the concentration for half-maximal inhibition (IC50) in test [3] amounted to 29 µM.

Turning to `Cc1cc(Nc2cc(Cl)cc(Cl)c2)ncn1` [Compound 23, N-(3,5-Dichlorophenyl)-6-methylpyrimidin-4-amine], the “prozyme protein level vs vehicle-only control” value in test [1] is reported as “vehicle-only levels of the prozyme protein”. In test [2], the concentration for a half-maximal effect (EC50) stood at 27 µM.

For `Cc1cc(Nc2cc(Cl)c(N(C)C)c(Cl)c2)nc(N)n1` [Compound 69, N^4-(3,5-Dichloro-4-(dimethylamino)phenyl)-6-methylpyrimidine-2,4-diamine], the EC50 in test [2] was determined as 5.8 µM. Take `Cc1cc(Nc2cc(Cl)c(N3CCOCC3)c(Cl)c2)nc(N)n1` [Compound 70, N^4-(3,5-Dichloro-4-morpholinophenyl)-6-methylpyrimidine-2,4-diamine]: the 50% effective concentration (EC50) in test [2] came to 18 µM.

As to `Cc1cc(Nc2cc(Cl)c(N3CCCCC3)c(Cl)c2)nc(N)n1` [Compound 71, N^4-(3,5-Dichloro-4-(piperidin-1-yl)phenyl)-6-methylpyrimidine-2,4-diamine], in test [2], the EC50 was 2.1 µM.

With `Cc1cc(Nc2cc(Cl)c(F)c(Cl)c2F)nc(N)n1` [Compound 73, N^4-(3,5-Dichloro-2,4-difluorophenyl)-6-methylpyrimidine-2,4-diamine], the EC50 in test [2] worked out at 10 µM. Consider `Cc1cc(Nc2ccccc2C)nc(N)n1` [Compound 77], for which the 50% effective concentration (EC50) in test [2] was more than 25 µM. `CSc1ccccc1Nc1cc(C)nc(N)n1` [Compound 78]: the half-maximal effective concentration (EC50) in test [2] was more than 25 µM. With `Cc1cc(Nc2ccccc2Br)nc(N)n1` [Compound 79], the EC50 in test [2] is more than 25 µM.

As to `Cc1cc(Nc2ccc(Cl)cc2C)nc(N)n1` [Compound 82], the EC50 in test [2] is more than 25 µM. Consider `CCc1ccc(Nc2cc(C)nc(N)n2)cc1` [Compound 86], for which the EC50 in test [2] was found to be 19 µM. For the compound `Cc1cc(Nc2ccc(C(C)C)cc2)nc(N)n1` [Compound 87], in test [2], the concentration for a half-maximal effect (EC50) stood at 11 µM. The same measure, in the same setting: the value for `Cc1cc(Nc2ccc(C(F)(F)F)cc2)nc(N)n1` [Compound 88] was 15 µM; that for `Cc1cc(Nc2ccc(-c3cc(Cl)cc(Cl)c3)cc2)nc(N)n1` [Compound 89, N^4-(3′,5′-Dichloro-[1,1′-biphenyl]-4-yl)-6-methylpyrimidine-2,4-diamine] was 1 µM; that for `Cc1cc(Nc2cc(Cl)cc(-c3ccc(F)cc3)c2)nc(N)n1` [Compound 91, N^4-(5-Chloro-4′-fluoro-[1,1′-biphenyl]-3-yl)-6-methylpyrimidine-2,4-diamine] was 1.6 µM.

In the case of `Cc1cc(Nc2cc(Cl)cc(-c3ccc(Cl)cc3)c2)nc(N)n1` [Compound 92, N^4-(4′,5-Dichloro-[1,1′-biphenyl]-3-yl)-6-methylpyrimidine-2,4-diamine], the half-maximal effective concentration (EC50) in test [2] stood at 2.2 µM.

As for `COc1ccc(-c2cc(Cl)cc(Nc3cc(C)nc(N)n3)c2)cc1` [Compound 93, N^4-(5-Chloro-4′-methoxy-[1,1′-biphenyl]-3-yl)-6-methylpyrimidine-2,4-diamine], in test [2], the EC50 was 4.5 µM. On the same count and under the same terms, to `Cc1ccc(-c2cc(Cl)cc(Nc3cc(C)nc(N)n3)c2)cc1` [Compound 94, N^4-(5-Chloro-4′-methyl-[1,1′-biphenyl]-3-yl)-6-methylpyrimidine-2,4-diamine] belongs 4.3 µM; to `Cc1cc(Nc2cc(Cl)cc(-c3ccc(C(F)(F)F)cc3)c2)nc(N)n1` [Compound 95, N^4-(5-Chloro-4′-(trifluoromethyl)-[1,1′-biphenyl]-3-yl)-6-methylpyrimidine-2,4-diamine], 2 µM; to `Cc1cc(Nc2cc(Cl)cc(-c3ccc(C#N)cc3)c2)nc(N)n1` [Compound 96, 3′-((2-Amino-6-methylpyrimidin-4-yl)amino)-5′-chloro-[1,1′-biphenyl]-4-carbonitrile], 1 µM.

For the compound `CC(=O)c1ccc(-c2cc(Cl)cc(Nc3cc(C)nc(N)n3)c2)cc1` [Compound 97, 1-(3′-((2-Amino-6-methylpyrimidin-4-yl)amino)-5′-chloro-[1,1′-biphenyl]-4-yl)ethan-1-one], in test [2], the EC50 was determined as 6.7 µM. For `Cc1cc(Nc2cc(Cl)cc(-c3ccc(O)cc3)c2)nc(N)n1` [Compound 98, 3′-((2-Amino-6-methylpyrimidin-4-yl)amino)-5′-chloro-[1,1′-biphenyl]-4-ol], the concentration giving a half-maximal response (EC50) in test [2] was 9.7 µM.

Consider `Cc1cc(Nc2cc(Cl)cc(-c3ccc(-c4ccccc4)cc3)c2)nc(N)n1` [Compound 99, N^4-(5-Chloro-[1,1′:4′,1″-terphenyl]-3-yl)-6-methylpyrimidine-2,4-diamine], for which, in test [2], the EC50 worked out at 0.91 µM. For `Cc1cc(Nc2cc(Cl)cc(-c3ccc(N(C)C)cc3)c2)nc(N)n1` [Compound 100, N^4-(5-Chloro-4′-(dimethylamino)-[1,1′-biphenyl]-3-yl)-6-methylpyrimidine-2,4-diamine], in test [2], the concentration for a half-maximal effect (EC50) was found to be 5 µM. For `Cc1cc(Nc2cc(Cl)cc(-c3ccccc3Cl)c2)nc(N)n1` [Compound 101, N^4-(2′,5-Dichloro-[1,1′-biphenyl]-3-yl)-6-methylpyrimidine-2,4-diamine], the EC50 in test [2] was determined as 8.5 µM. For the compound `Cc1cc(Nc2cc(Cl)cc(-c3cccc(Cl)c3)c2)nc(N)n1` [Compound 102, N^4-(3′,5-Dichloro-[1,1′-biphenyl]-3-yl)-6-methylpyrimidine-2,4-diamine], the EC50 in test [2] is 1.9 µM. For the compound `Cc1cc(Nc2cc(Cl)cc(-c3ccc(Cl)c(Cl)c3)c2)nc(N)n1` [Compound 103, 6-Methyl-N^4-(3′,4′,5-trichloro-[1,1′-biphenyl]-3-yl)pyrimidine-2,4-diamine], the EC50 in test [2] was 2.9 µM.

As for `Cc1cc(Nc2cc(Cl)cc(-c3ccc(Cl)c(C(F)(F)F)c3)c2)nc(N)n1` [Compound 105, N^4-(4′,5-Dichloro-3′-(trifluoromethyl)-[1,1′-biphenyl]-3-yl)-6-methylpyrimidine-2,4-diamine], the EC50 in test [2] came to 1.5 µM. In the case of `Cc1cc(Nc2cc(Cl)cc(-c3cc(C(F)(F)F)cc(C(F)(F)F)c3)c2)nc(N)n1` [Compound 106, N^4-(5-Chloro-3′,5′-bis(trifluoromethyl)-[1,1′-biphenyl]-3-yl)-6-methylpyrimidine-2,4-diamine], the half-maximal effective concentration (EC50) in test [2] was 0.53 µM. Take `Cc1cc(Nc2cc(Cl)cc(-c3ccc4ccccc4c3)c2)nc(N)n1` [Compound 107, N^4-(3-Chloro-5-(naphthalen-2-yl)phenyl)-6-methylpyrimidine-2,4-diamine]: the EC50 in test [2] was 1.7 µM. Turning to `Cc1cc(Nc2cc(Cl)cc(-c3cc4ccccc4c4ccccc34)c2)nc(N)n1` [Compound 108, N^4-(3-Chloro-5-(phenanthren-9-yl)phenyl)-6-methylpyrimidine-2,4-diamine], the EC50 in test [2] is 1.8 µM.

Consider `Cc1cc(Nc2cc(Cl)cc(-c3ccc4c(c3)OCO4)c2)nc(N)n1` [Compound 109, N^4-(3-(Benzo[d][1,3]dioxol-5-yl)-5-chlorophenyl)-6-methylpyrimidine-2,4-diamine], for which the EC50 in test [2] was 2.3 µM.

Regarding `Cc1cc(Nc2cc(Cl)cc(-c3ccc4nonc4c3)c2)nc(N)n1` [Compound 110, N^4-(3-(Benzo[c][1,2,5]oxadiazol-5-yl)-5-chlorophenyl)-6-methylpyrimidine-2,4-diamine], in test [2], the EC50 turned out to be 0.57 µM. Turning to `Cc1cc(Nc2cc(Cl)cc(-c3ccoc3)c2)nc(N)n1` [Compound 111, N^4-(3-Chloro-5-(furan-3-yl)phenyl)-6-methylpyrimidine-2,4-diamine], in test [2], the EC50 turned out to be 7.1 µM.

`Cc1cc(Nc2cc(Cl)cc(-c3cc4ccccc4o3)c2)nc(N)n1` [Compound 112, N^4-(3-(Benzofuran-2-yl)-5-chlorophenyl)-6-methylpyrimidine-2,4-diamine]: the concentration giving a half-maximal response (EC50) in test [2] was 1.4 µM. For the compound `Cc1cc(Nc2cc(Cl)cc(-c3ccsc3)c2)nc(N)n1` [Compound 113, N^4-(3-Chloro-5-(thiophen-3-yl)phenyl)-6-methylpyrimidine-2,4-diamine], the EC50 in test [2] was found to be 29 µM. Regarding `Cc1cc(Nc2cc(Cl)cc(-c3cc4ccccc4s3)c2)nc(N)n1` [Compound 114, N^4-(3-(Benzo[b]thiophen-2-yl)-5-chlorophenyl)-6-methylpyrimidine-2,4-diamine], in test [2], the EC50 is 1.6 µM.

As for `Cc1cc(Nc2cc(Cl)cc(-c3cncs3)c2)nc(N)n1` [Compound 115, N^4-(3-Chloro-5-(thiazol-5-yl)phenyl)-6-methylpyrimidine-2,4-diamine], the EC50 in test [2] came out at 3.6 µM. Take `Cc1cc(Nc2cc(Cl)cc(-c3cnn(C)c3)c2)nc(N)n1` [Compound 116, N^4-(3-Chloro-5-(1-methyl-1H-pyrazol-4-yl)phenyl)-6-methylpyrimidine-2,4-diamine]: in test [2], the EC50 was determined as 6.7 µM.

Turning to `Cc1cc(Nc2cc(Cl)cc(-c3cncnc3)c2)nc(N)n1` [Compound 117, N^4-(3-Chloro-5-(pyrimidin-5-yl)phenyl)-6-methylpyrimidine-2,4-diamine], the EC50 in test [2] turned out to be 58 µM. Consider `CCc1cc(Nc2cc(C)nc(N)n2)cc(-c2ccc(F)cc2)c1` [Compound 118, N^4-(5-Ethyl-4′-fluoro-[1,1′-biphenyl]-3-yl)-6-methylpyrimidine-2,4-diamine], for which the EC50 in test [2] amounted to 1.3 µM.

Usually EC50 stands for the concentration that produces a half-maximal response. The IC50 is the point on the concentration scale where inhibition reaches its midpoint.
